Source: patent publication US20230382924A1, “MODULATORS OF CYSTIC FIBROSIS TRANSMEMBRANE CONDUCTANCE REGULATOR” (VERTEX PHARMACEUTICALS INCORPORATED, priority 2020, published 2023)
Like-named read-outs stand apart in the source and are kept apart here. Each block holds one compound with its values, some of them ahead of it.

How the values were obtained:
[1] = amide bond, 13-membered ring
[2] = from Cc1cccc(C)c1-c1cc(OC(CN)c2ccc(Br)cc2)nc(NS(=O)(=O)c2cccc(C(=O)O)c2)n1; amide bond; 13-membered ring; FDPP/DIEA; DMF; 36.8 mM; 25.0 °C; 1.0 h
CFTR [3] = molecular target: T1, CFTR (Homo sapiens, UniProt P13569); experiment: standard Ussing Chamber Assay for CFTR potentiator activity; assay type: cell-based
Target sequence in this assay (P13569 whole entry, species assumed): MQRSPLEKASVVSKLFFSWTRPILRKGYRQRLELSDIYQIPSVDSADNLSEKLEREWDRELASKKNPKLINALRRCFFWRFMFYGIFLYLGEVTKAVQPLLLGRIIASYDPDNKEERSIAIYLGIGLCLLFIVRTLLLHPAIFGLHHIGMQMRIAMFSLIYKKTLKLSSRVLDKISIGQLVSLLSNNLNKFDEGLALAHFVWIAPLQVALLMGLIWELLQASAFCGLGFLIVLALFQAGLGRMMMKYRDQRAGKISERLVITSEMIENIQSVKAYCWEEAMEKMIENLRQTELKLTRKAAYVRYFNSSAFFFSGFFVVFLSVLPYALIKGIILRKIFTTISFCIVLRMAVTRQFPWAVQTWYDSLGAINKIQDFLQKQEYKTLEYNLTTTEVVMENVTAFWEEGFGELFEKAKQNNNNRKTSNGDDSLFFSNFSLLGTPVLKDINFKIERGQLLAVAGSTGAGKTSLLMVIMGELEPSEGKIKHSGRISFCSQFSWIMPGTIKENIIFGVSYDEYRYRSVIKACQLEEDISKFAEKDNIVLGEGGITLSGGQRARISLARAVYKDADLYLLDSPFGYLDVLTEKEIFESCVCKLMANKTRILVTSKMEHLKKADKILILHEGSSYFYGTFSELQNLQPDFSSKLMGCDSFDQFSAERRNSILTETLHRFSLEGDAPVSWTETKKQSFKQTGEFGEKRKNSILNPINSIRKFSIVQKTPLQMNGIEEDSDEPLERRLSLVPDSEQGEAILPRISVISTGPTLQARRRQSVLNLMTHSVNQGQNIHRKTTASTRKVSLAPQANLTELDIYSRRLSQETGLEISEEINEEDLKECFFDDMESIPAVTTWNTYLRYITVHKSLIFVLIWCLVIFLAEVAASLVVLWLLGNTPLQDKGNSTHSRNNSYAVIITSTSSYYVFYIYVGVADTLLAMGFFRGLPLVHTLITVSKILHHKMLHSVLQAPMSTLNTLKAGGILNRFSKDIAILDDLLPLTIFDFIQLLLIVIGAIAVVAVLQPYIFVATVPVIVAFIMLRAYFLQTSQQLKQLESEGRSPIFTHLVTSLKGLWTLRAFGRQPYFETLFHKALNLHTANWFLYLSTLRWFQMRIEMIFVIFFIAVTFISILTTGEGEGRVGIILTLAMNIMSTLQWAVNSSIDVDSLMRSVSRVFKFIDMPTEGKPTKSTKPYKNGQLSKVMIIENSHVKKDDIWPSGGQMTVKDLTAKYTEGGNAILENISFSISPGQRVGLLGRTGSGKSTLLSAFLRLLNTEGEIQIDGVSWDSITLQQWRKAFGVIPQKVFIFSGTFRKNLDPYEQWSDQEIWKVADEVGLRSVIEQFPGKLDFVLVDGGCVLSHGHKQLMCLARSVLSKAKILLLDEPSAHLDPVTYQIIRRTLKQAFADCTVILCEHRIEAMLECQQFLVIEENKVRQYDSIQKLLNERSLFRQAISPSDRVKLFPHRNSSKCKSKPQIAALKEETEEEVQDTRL

CFTR [4] = molecular target: T1, CFTR; experiment: Membrane Potential Dye, Enteroid Assay A; assay type: cell-based; settings: for EC50: read-out: Ent. A EC50
Procedure, shortened: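 Signal is reported as % Activity relative to a triple CFTR modulator control (3 μM + 3 μM + 300 nM acute). Read-out: membrane potential fluorescence (20 μM methyl oxonol) monitored for 15 min after chloride-free stimulation. Dye loading took 25 min at room temperature in Bath 1 buffer containing CaCC blockers.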
Target sequence in this assay (P13569 with tags, fused parts or gaps DEL508-508): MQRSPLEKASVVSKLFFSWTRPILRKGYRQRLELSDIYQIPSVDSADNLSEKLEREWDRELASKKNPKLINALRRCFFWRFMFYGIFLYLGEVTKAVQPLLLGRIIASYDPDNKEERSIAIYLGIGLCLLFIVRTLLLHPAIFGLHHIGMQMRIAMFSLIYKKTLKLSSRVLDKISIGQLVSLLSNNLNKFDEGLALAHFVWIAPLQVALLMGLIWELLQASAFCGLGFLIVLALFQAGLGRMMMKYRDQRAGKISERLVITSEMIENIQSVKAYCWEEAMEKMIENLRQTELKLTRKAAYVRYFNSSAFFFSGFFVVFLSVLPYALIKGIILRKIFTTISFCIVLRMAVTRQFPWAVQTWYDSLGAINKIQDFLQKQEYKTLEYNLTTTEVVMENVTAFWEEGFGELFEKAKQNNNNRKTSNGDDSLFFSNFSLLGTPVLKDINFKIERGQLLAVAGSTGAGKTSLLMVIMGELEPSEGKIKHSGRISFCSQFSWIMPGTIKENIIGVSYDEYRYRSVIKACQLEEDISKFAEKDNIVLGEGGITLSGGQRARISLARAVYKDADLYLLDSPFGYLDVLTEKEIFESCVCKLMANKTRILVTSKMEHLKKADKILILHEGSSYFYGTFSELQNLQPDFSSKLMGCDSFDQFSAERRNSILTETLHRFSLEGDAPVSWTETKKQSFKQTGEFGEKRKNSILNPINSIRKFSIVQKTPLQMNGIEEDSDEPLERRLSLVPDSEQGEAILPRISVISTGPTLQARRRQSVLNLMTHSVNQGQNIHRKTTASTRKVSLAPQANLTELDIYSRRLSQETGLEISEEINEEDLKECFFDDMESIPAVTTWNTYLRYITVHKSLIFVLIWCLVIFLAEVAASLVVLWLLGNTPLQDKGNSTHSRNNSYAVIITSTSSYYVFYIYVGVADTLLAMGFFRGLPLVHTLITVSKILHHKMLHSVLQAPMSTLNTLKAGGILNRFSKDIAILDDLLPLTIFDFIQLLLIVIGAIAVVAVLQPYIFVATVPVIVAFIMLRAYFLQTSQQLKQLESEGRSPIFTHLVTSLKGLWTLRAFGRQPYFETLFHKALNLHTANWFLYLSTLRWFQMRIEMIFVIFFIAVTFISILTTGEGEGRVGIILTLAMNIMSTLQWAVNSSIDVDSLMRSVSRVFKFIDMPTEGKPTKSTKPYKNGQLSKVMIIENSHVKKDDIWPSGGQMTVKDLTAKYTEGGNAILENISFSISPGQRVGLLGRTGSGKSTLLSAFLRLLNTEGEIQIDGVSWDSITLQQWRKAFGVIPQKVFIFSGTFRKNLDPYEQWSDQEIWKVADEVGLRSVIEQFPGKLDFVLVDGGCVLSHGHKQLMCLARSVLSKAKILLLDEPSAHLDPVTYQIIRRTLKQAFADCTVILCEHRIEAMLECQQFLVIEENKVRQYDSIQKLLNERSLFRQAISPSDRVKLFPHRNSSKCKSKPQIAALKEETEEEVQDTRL

CFTR [5] = molecular target: T1, CFTR; experiment: Membrane Potential Dye, Enteroid Assay B; assay type: cell-based; settings: for EC50: read-out: Ent. B EC50
Procedure, shortened: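 Enteroid cells loaded 25 min at room temperature with 20 μM methyl oxonol plus 30 μM CaCCinh-A01 and 30 μM Chicago Sky Blue, then switched to chloride-free gluconate buffer. Chloride transport was started by chloride-free stimulation solution, with fluorescence read for 15 min.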
Target sequence in this assay (P13569 with tags, fused parts or gaps DEL508-508): as above

F508del = molecular target: T2, F508del (Homo sapiens, UniProt P13569, DEL508-508); experiment: 3T3 assay: membrane potential optical assay for F508del correction in NIH 3T3 cells; assay type: cell-based; settings: Table 8
T2 construct: expressed in transfected cells
T2 sequence (P13569 with tags, fused parts or gaps DEL508-508): as above
Procedure, shortened: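 NIH 3T3 mouse fibroblasts stably expressing F508del were incubated with corrector compounds at a range of concentrations for 16–24 h at 37° C, then loaded with a redistribution voltage-sensing dye. A single addition of forskolin under a chloride gradient (gluconate-substituted bath, pH 7.4) gave the membrane-potential response, read by FLIPR.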

Compound: Cc1cccc(C)c1-c1cc2nc(n1)NS(=O)(=O)c1cccc(c1)C(=O)NCC(c1ccc(Br)cc1)O2 (stereo not drawn)
ring closure, isolated yield ([1]; from Cc1cccc(C)c1-c1cc(OC(CN)c2ccc(Br)cc2)nc(NS(=O)(=O)c2cccc(C(=O)O)c2)n1, HATU/DIEA, DMF, 26.4 mM, 25.0 °C, 2.0 h): 25%
ring closure, yield after HPLC [2]: 52%

CFTR modulatory activity (CFTR [3]): confirmed
Compound: C[C@@H]1CCCCC[C@](O)(C(F)(F)F)C2=NN=C(O2)c2nc(c(C(F)(F)F)cc2N)O1 [(6R,12R)-17-amino-12-methyl-6,15-bis(trifluoromethyl)-13,19-dioxa-3,4,18-triazatricyclo[12.3.1.12,5]nonadeca-1(18),2,4,14,16-pentaen-6-ol]

Compound: Cc1cccc(C)c1-c1cc2nc(n1)NS(=O)(=O)c1cccc(c1)C(=O)N[C@H](C)[C@@H](c1ccc(C(C)(C)C)cc1)O2 [Compound 38, (10R,11R)-10-(4-tert-Butylphenyl)-6-(2,6-dimethylphenyl)-11-methyl-9-oxa-2λ^6-thia-3,5,12,19-tetraazatricyclo[12.3.1.14,8]nonadeca-1(18),4,6,8(19),14,16-hexaene-2,2,13-trione]
Ent. A Max Activity (CFTR [4]; Table 8): +++ (+++ is >60%)
EC50 (CFTR [4]; Table 8): < 1000 nM
ring closure, isolated yield ([1]; from Cc1cccc(C)c1-c1cc(O[C@H](c2ccc(C(C)(C)C)cc2)[C@@H](C)N)nc(NS(=O)(=O)c2cccc(C(=O)O)c2)n1, HATU/NaOtBu, DMF/MeTHF, 52.6 mM, 25.0 °C, 16.0 h, 2 steps): 39%
Ent. B Max Activity (CFTR [5]; Table 8): +++ (+++ is >60%)
EC50 (CFTR [5]; Table 8): < 1000 nM
Emax (F508del; NIH3T3, read-out: 3T3 Max Activity): > 60%
EC50 (F508del): < 1000 nM

Ent. A Max Activity (CFTR [4]; Table 9): +++ (+++ is >60%)
EC50 (CFTR [4]; Table 9): 1000 to 3000 nM
Ent. B Max Activity (CFTR [5]; Table 9): +++ (+++ is >60%)
EC50 (CFTR [5]; Table 9): 1000 to 3000 nM
Compound: Cc1cccc(C)c1-c1cc2nc(n1)NS(=O)(=O)c1cccc(c1)C(=O)N[C@@H]1CN(C(=O)OC(C)(C)C)C[C@H]1O2 [Compound 57, tert-Butyl (3R,7R)-19-(2,6-dimethylphenyl)-9,15,15-trioxo-2-oxa-15λ^6-thia-5,8,16,18,21-pentaazatetracyclo[15.3.1.110,14.03,7]docosa-1(20),10(22),11,13,17(21),18-hexaene-5-carboxylate]
ring closure, isolated yield ([1]; from Cc1cccc(C)c1-c1cc(O[C@@H]2CN(C(=O)OC(C)(C)C)C[C@H]2N)nc(NS(=O)(=O)c2cccc(C(=O)O)c2)n1, HATU/DIEA, DMF, 17.1 mM, 72.0 h): 18%
